Measurements reported in patent US10251395B2, “Substituted furano-/thienocycloalkylamino-2-pyrimidine derivatives and use thereof for controlling undesired plant growth” (Bayer CropScience Aktiengesellschaft, priority 2015, dated 2019).

Legend:
Assay type in all cases: in vivo
Viola tricolor [1] = assay: Pre-emergence herbicidal effect; conditions: scored visually after 3 weeks
How it was run: (§1)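 Pre-em soil-surface spray; sandy loam, seeds covered with soil. WP/EC, aq. suspension/emulsion, 600–800 L/ha, +0.2% wetting agent. GH 3 wk; visual % activity vs untreated (100% = dead).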

Matricaria inodora [2] = assay: Pre-emergence herbicidal effect; conditions: scored visually after 3 weeks
How it was run: as §1

Veronica persica [3] = assay: Pre-emergence herbicidal effect; conditions: scored visually after 3 weeks
How it was run: as §1

Polygonum convolvulus [4] = assay: Pre-emergence herbicidal effect; conditions: scored visually after 3 weeks
How it was run: as §1

Echinochloa crus-galli [5] = assay: Pre-emergence herbicidal effect; conditions: scored visually after 3 weeks
How it was run: as §1

Cyperus esculentus = assay: Pre-emergence herbicidal effect; conditions: scored visually after 3 weeks
How it was run: as §1

Lolium multiflorum [6] = assay: Pre-emergence herbicidal effect; conditions: scored visually after 3 weeks
How it was run: as §1

Stellaria media [7] = assay: Pre-emergence herbicidal effect; conditions: scored visually after 3 weeks
How it was run: as §1

Setaria viridis [8] = assay: Pre-emergence herbicidal effect; conditions: scored visually after 3 weeks
How it was run: as §1

Abutilon theophrasti [9] = assay: Pre-emergence herbicidal effect; conditions: scored visually after 3 weeks
How it was run: as §1

Alopecurus myosuroides [10] = assay: Pre-emergence herbicidal effect; conditions: scored visually after 3 weeks
How it was run: as §1

Avena fatua [11] = assay: Pre-emergence herbicidal effect; conditions: scored visually after 3 weeks
How it was run: as §1

Amaranthus retroflexus [12] = assay: Pre-emergence herbicidal effect; conditions: scored visually after 3 weeks
How it was run: as §1

Viola tricolor [13] = assay: Post-emergence herbicidal effect; conditions: assessed visually after about 3 weeks vs untreated controls
How it was run: (§2)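 Seedlings at the one-leaf stage, about 2 to 3 weeks old, are sprayed on their foliage with compound suspended or emulsified in water containing 0.2% wetting agent. After roughly 3 weeks in the greenhouse, injury is estimated visually on a 0 to 100% scale.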

Matricaria inodora [14] = assay: Post-emergence herbicidal effect; conditions: assessed visually after about 3 weeks vs untreated controls
How it was run: as §2

Veronica persica [15] = assay: Post-emergence herbicidal effect; conditions: assessed visually after about 3 weeks vs untreated controls
How it was run: as §2

Polygonum convolvulus [16] = assay: Post-emergence herbicidal effect; conditions: assessed visually after about 3 weeks vs untreated controls
How it was run: as §2

Echinochloa crus-galli [17] = assay: Post-emergence herbicidal effect; conditions: assessed visually after about 3 weeks vs untreated controls
How it was run: as §2

Ipomoea purpurea = assay: Post-emergence herbicidal effect; conditions: assessed visually after about 3 weeks vs untreated controls
How it was run: as §2

Lolium multiflorum [18] = assay: Post-emergence herbicidal effect; conditions: assessed visually after about 3 weeks vs untreated controls
How it was run: as §2

Stellaria media [19] = assay: Post-emergence herbicidal effect; conditions: assessed visually after about 3 weeks vs untreated controls
How it was run: as §2

Setaria viridis [20] = assay: Post-emergence herbicidal effect; conditions: assessed visually after about 3 weeks vs untreated controls
How it was run: as §2

Abutilon theophrasti [21] = assay: Post-emergence herbicidal effect; conditions: assessed visually after about 3 weeks vs untreated controls
How it was run: as §2

Alopecurus myosuroides [22] = assay: Post-emergence herbicidal effect; conditions: assessed visually after about 3 weeks vs untreated controls
How it was run: as §2

Avena fatua [23] = assay: Post-emergence herbicidal effect; conditions: assessed visually after about 3 weeks vs untreated controls
How it was run: as §2

Amaranthus retroflexus [24] = assay: Post-emergence herbicidal effect; conditions: assessed visually after about 3 weeks vs untreated controls
How it was run: as §2

Cc1cc2c(s1)CCC[C@H]2Nc1ncc(I)c(N)n1 [compound 173]
VIOTR pre-emergence efficacy (herbicidal activity) (Viola tricolor [1]; Dosage 80 g/ha): 100% | VIOTR pre-emergence efficacy (herbicidal activity) (Viola tricolor [1]; Dosage 320 g/ha): 100% | MATIN pre-emergence efficacy (herbicidal activity) (Matricaria inodora [2]; Dosage 80 g/ha): 100% | MATIN pre-emergence efficacy (herbicidal activity) (Matricaria inodora [2]; Dosage 320 g/ha): 100% | VERPE pre-emergence efficacy (herbicidal activity) (Veronica persica [3]; Dosage 80 g/ha): 90% | VERPE pre-emergence efficacy (herbicidal activity) (Veronica persica [3]; Dosage 320 g/ha): 100% | POLCO pre-emergence efficacy (herbicidal activity) (Polygonum convolvulus [4]; Dosage 80 g/ha): 90% | POLCO pre-emergence efficacy (herbicidal activity) (Polygonum convolvulus [4]; Dosage 320 g/ha): 100% | ECHCG pre-emergence efficacy (herbicidal activity) (Echinochloa crus-galli [5]; Dosage 80 g/ha): 100% | ECHCG pre-emergence efficacy (herbicidal activity) (Echinochloa crus-galli [5]; Dosage 320 g/ha): 100% | CYPES pre-emergence efficacy (herbicidal activity) (Cyperus esculentus; Dosage 320 g/ha): 60% | LOLMU pre-emergence efficacy (herbicidal activity) (Lolium multiflorum [6]; Dosage 80 g/ha): 60% | LOLMU pre-emergence efficacy (herbicidal activity) (Lolium multiflorum [6]; Dosage 320 g/ha): 100% | STEME pre-emergence efficacy (herbicidal activity) (Stellaria media [7]; Dosage 80 g/ha): 100% | STEME pre-emergence efficacy (herbicidal activity) (Stellaria media [7]; Dosage 320 g/ha): 100% | SETVI pre-emergence efficacy (herbicidal activity) (Setaria viridis [8]; Dosage 80 g/ha): 90% | SETVI pre-emergence efficacy (herbicidal activity) (Setaria viridis [8]; Dosage 320 g/ha): 100% | ABUTH pre-emergence efficacy (herbicidal activity) (Abutilon theophrasti [9]; Dosage 320 g/ha): 100% | ALOMY pre-emergence efficacy (herbicidal activity) (Alopecurus myosuroides [10]; Dosage 80 g/ha): 60% | ALOMY pre-emergence efficacy (herbicidal activity) (Alopecurus myosuroides [10]; Dosage 320 g/ha): 80% | AVEFA pre-emergence efficacy (herbicidal activity) (Avena fatua [11]; Dosage 320 g/ha): 60% | AMARE pre-emergence efficacy (herbicidal activity) (Amaranthus retroflexus [12]; Dosage 80 g/ha): 100% | AMARE pre-emergence efficacy (herbicidal activity) (Amaranthus retroflexus [12]; Dosage 320 g/ha): 100% | post-emergence efficacy VIOTR (Viola tricolor [13]; 80 g/ha): 90% | post-emergence efficacy VIOTR (Viola tricolor [13]; 320 g/ha): 90% | post-emergence efficacy MATIN (Matricaria inodora [14]; 80 g/ha): 60% | post-emergence efficacy MATIN (Matricaria inodora [14]; 320 g/ha): 90% | post-emergence efficacy VERPE (Veronica persica [15]; 320 g/ha): 100% | post-emergence efficacy POLCO (Polygonum convolvulus [16]; 320 g/ha): 60% | post-emergence efficacy ECHCG (Echinochloa crus-galli [17]; 80 g/ha): 100% | post-emergence efficacy ECHCG (Echinochloa crus-galli [17]; 320 g/ha): 100% | post-emergence efficacy PHBPU (Ipomoea purpurea; 80 g/ha): 90% | post-emergence efficacy PHBPU (Ipomoea purpurea; 320 g/ha): 100% | post-emergence efficacy LOLMU (Lolium multiflorum [18]; 80 g/ha): 60% | post-emergence efficacy LOLMU (Lolium multiflorum [18]; 320 g/ha): 90% | post-emergence efficacy STEME (Stellaria media [19]; 80 g/ha): 100% | post-emergence efficacy STEME (Stellaria media [19]; 320 g/ha): 100% | post-emergence efficacy SETVI (Setaria viridis [20]; 80 g/ha): 80% | post-emergence efficacy SETVI (Setaria viridis [20]; 320 g/ha): 90% | post-emergence efficacy ABUTH (Abutilon theophrasti [21]; 80 g/ha): 80% | post-emergence efficacy ABUTH (Abutilon theophrasti [21]; 320 g/ha): 90% | post-emergence efficacy ALOMY (Alopecurus myosuroides [22]; 320 g/ha): 100% | post-emergence efficacy AVEFA (Avena fatua [23]; 320 g/ha): 90% | post-emergence efficacy AMARE (Amaranthus retroflexus [24]; 80 g/ha): 90% | post-emergence efficacy AMARE (Amaranthus retroflexus [24]; 320 g/ha): 90%

Cc1cc2c(s1)CCCC2Nc1ncc(C#N)c(N)n1 (stereo not shown) [compound 282]
VIOTR pre-emergence efficacy (herbicidal activity) (Viola tricolor [1]; Dosage 80 g/ha): 100% | VIOTR pre-emergence efficacy (herbicidal activity) (Viola tricolor [1]; Dosage 320 g/ha): 100% | MATIN pre-emergence efficacy (herbicidal activity) (Matricaria inodora [2]; Dosage 80 g/ha): 100% | MATIN pre-emergence efficacy (herbicidal activity) (Matricaria inodora [2]; Dosage 320 g/ha): 100% | VERPE pre-emergence efficacy (herbicidal activity) (Veronica persica [3]; Dosage 80 g/ha): 100% | VERPE pre-emergence efficacy (herbicidal activity) (Veronica persica [3]; Dosage 320 g/ha): 100% | POLCO pre-emergence efficacy (herbicidal activity) (Polygonum convolvulus [4]; Dosage 80 g/ha): 100% | POLCO pre-emergence efficacy (herbicidal activity) (Polygonum convolvulus [4]; Dosage 320 g/ha): 100% | ECHCG pre-emergence efficacy (herbicidal activity) (Echinochloa crus-galli [5]; Dosage 80 g/ha): 100% | ECHCG pre-emergence efficacy (herbicidal activity) (Echinochloa crus-galli [5]; Dosage 320 g/ha): 100% | CYPES pre-emergence efficacy (herbicidal activity) (Cyperus esculentus; Dosage 80 g/ha): 80% | CYPES pre-emergence efficacy (herbicidal activity) (Cyperus esculentus; Dosage 320 g/ha): 100% | LOLMU pre-emergence efficacy (herbicidal activity) (Lolium multiflorum [6]; Dosage 80 g/ha): 100% | LOLMU pre-emergence efficacy (herbicidal activity) (Lolium multiflorum [6]; Dosage 320 g/ha): 100% | STEME pre-emergence efficacy (herbicidal activity) (Stellaria media [7]; Dosage 80 g/ha): 100% | STEME pre-emergence efficacy (herbicidal activity) (Stellaria media [7]; Dosage 320 g/ha): 100% | SETVI pre-emergence efficacy (herbicidal activity) (Setaria viridis [8]; Dosage 80 g/ha): 100% | SETVI pre-emergence efficacy (herbicidal activity) (Setaria viridis [8]; Dosage 320 g/ha): 100% | ABUTH pre-emergence efficacy (herbicidal activity) (Abutilon theophrasti [9]; Dosage 80 g/ha): 80% | ABUTH pre-emergence efficacy (herbicidal activity) (Abutilon theophrasti [9]; Dosage 320 g/ha): 80% | ALOMY pre-emergence efficacy (herbicidal activity) (Alopecurus myosuroides [10]; Dosage 80 g/ha): 100% | ALOMY pre-emergence efficacy (herbicidal activity) (Alopecurus myosuroides [10]; Dosage 320 g/ha): 100% | AVEFA pre-emergence efficacy (herbicidal activity) (Avena fatua [11]; Dosage 80 g/ha): 80% | AVEFA pre-emergence efficacy (herbicidal activity) (Avena fatua [11]; Dosage 320 g/ha): 90% | AMARE pre-emergence efficacy (herbicidal activity) (Amaranthus retroflexus [12]; Dosage 80 g/ha): 100% | AMARE pre-emergence efficacy (herbicidal activity) (Amaranthus retroflexus [12]; Dosage 320 g/ha): 100% | post-emergence efficacy VIOTR (Viola tricolor [13]; 80 g/ha): 100% | post-emergence efficacy VIOTR (Viola tricolor [13]; 320 g/ha): 100% | post-emergence efficacy MATIN (Matricaria inodora [14]; 80 g/ha): 90% | post-emergence efficacy MATIN (Matricaria inodora [14]; 320 g/ha): 90% | post-emergence efficacy VERPE (Veronica persica [15]; 80 g/ha): 80% | post-emergence efficacy VERPE (Veronica persica [15]; 320 g/ha): 90% | post-emergence efficacy POLCO (Polygonum convolvulus [16]; 80 g/ha): 90% | post-emergence efficacy POLCO (Polygonum convolvulus [16]; 320 g/ha): 90% | post-emergence efficacy ECHCG (Echinochloa crus-galli [17]; 80 g/ha): 100% | post-emergence efficacy ECHCG (Echinochloa crus-galli [17]; 320 g/ha): 100% | post-emergence efficacy PHBPU (Ipomoea purpurea; 80 g/ha): 80% | post-emergence efficacy PHBPU (Ipomoea purpurea; 320 g/ha): 90% | post-emergence efficacy LOLMU (Lolium multiflorum [18]; 80 g/ha): 100% | post-emergence efficacy LOLMU (Lolium multiflorum [18]; 320 g/ha): 100% | post-emergence efficacy STEME (Stellaria media [19]; 80 g/ha): 100% | post-emergence efficacy STEME (Stellaria media [19]; 320 g/ha): 100% | post-emergence efficacy SETVI (Setaria viridis [20]; 80 g/ha): 100% | post-emergence efficacy SETVI (Setaria viridis [20]; 320 g/ha): 100% | post-emergence efficacy ABUTH (Abutilon theophrasti [21]; 80 g/ha): 90% | post-emergence efficacy ABUTH (Abutilon theophrasti [21]; 320 g/ha): 90% | post-emergence efficacy ALOMY (Alopecurus myosuroides [22]; 80 g/ha): 100% | post-emergence efficacy ALOMY (Alopecurus myosuroides [22]; 320 g/ha): 100% | post-emergence efficacy AVEFA (Avena fatua [23]; 80 g/ha): 100% | post-emergence efficacy AVEFA (Avena fatua [23]; 320 g/ha): 100% | post-emergence efficacy AMARE (Amaranthus retroflexus [24]; 80 g/ha): 100% | post-emergence efficacy AMARE (Amaranthus retroflexus [24]; 320 g/ha): 100%
